From US7071206B2, “Agents for treating neurodegenerative disorders” (Medivation, Inc., priority 1995, dated 2006)
Where “and” joins values, the source holds several entries; their conditions need not be identical. Equal values may be shown once.

System: patients suffering from Alzheimer's disease
Experiment: Clinical trial of dimebon tablets, inventors' scale (E. E. Bukatina et al.; 0 = absence of a symptom, 4 = greatest manifestation)
Format: in vivo, human
Procedure: The test was carried out under the direct supervision by two of the inventors, namely E. E. Bukatina and V. Grigorieva, in 14 patients who agreed to take part in the tests, 13 of whom lived in a boarding house for senile persons and one patient lived with their family.
Alzheimer's disease was diagnosed on the basis of criteria ICD-10 NINCDS ADRDA.
Dimebon in the form of tablets (comprising 10 mg of dimebon, 30 mg of lactose, 5 mg of magnesium stearate was prescribed for oral administration in a dose of 0.02 g three to times a day. The patients living in the boarding house received dimebon for 58 days. A patient (observation 14) who was under outpatient observation continued taking the agent for a month after the completion of the tests.
Before the treatment with dimebon, and at 4 and 8 weeks after treatment the patients were examined according to Hazegawa's scale and the inventors' scale (“Social and Clinical Psychiatry”, 1992, No.4, pp.29–37) which includes the following indexes: (1) orientation in locality, time, immediate surroundings and one's own personality; (2) orientation in space; (3) memory for the past; (4) memory for the present; (5) “life in the past”; (6) (a) articulation, (b) difficulty in finding words, and distortion of words; (c) naming of objects; (d) following instructions; (7) concentration (of attention); (8) an affective sphere; (a) high spirits, (b) low spirits; (9) delirium; (10) hearing hallucinations; (11) visual hallucinations; (12) senile or senile-like confusion (when motion anxiety is accompanied by the revival of the past experience); (13) irritability; (14) anxiety; (15) asthenia; (16) headaches; (17) dizziness; (18) tearfulness; (19) spontaneous activity; (20) elementary self-service; and (21 control of sphincters.
According to the Hazegawa's scale, the 0 score indicates the poorest result; on the contrary, according to the inventors' scale, the 0 score indicates the absence of a symptom 4 score indicates the greatest manifestation thereof. […] Before the therapy was started, the patients had been independently examined by two doctors who used the inventors' scale. The examination during the treatment was carried out by the doctors using both the scales. The evaluation according to all the inventors' scale points during all the tests and their variations during the treatment with dimebon are given in the Appendix.
According to the inventors' scale, the degree of the disturbance if the cognitive functions was determined by a sum of evaluations according to the first 5 scale points reflecting the condition of memory, orientation and relation with the reality. The disturbance of speech was dealt with separately and was determined by a sum of evaluations according to items 6b-6d.
Both absolute evaluations of the signs under investigation (the evaluation prior to treatment is a mean evaluation of the two examinations) and variations in them were analysed in the course of therapy. In doing so, only those changes that were beyond the range of evaluations obtained in two pre-treatment examinations were taken into consideration.
The test results reflected the condition of the patients at the time of the examination. Any changes in the metal state observed in the interval between the tests and disappearing by the moment of examination according to the scale were described in the section “Clinical Observations”.
The statistical data processing was carried out by means of Student's t-test and Fisher's “Fi” criterion.

[1] = after 8 weeks vs two examinations prior to treatment, + improvement, − deterioration
[2] = after 8 weeks, mean of 14 patients
[3] = change at 4 weeks vs K1, K2, per patient, listed as dimebon

## Cc1ccc2c(c1)c1c(n2CCc2ccc(C)nc2)CCN(C)C1 [No. 10, 2,8-dimethyl-5-[2-(6-methyl-3-pyridyl)ethyl]-2,3,4,5-tetrahydro-1H-pyrido[4,3-b]indole]
After 4 weeks, mean of 14 patients
  Item 20 (elementary self-service): mean value: 0.07 +/− 0.07 scores
After 8 weeks
  mean score of tearfulness: 0±0.0
  number of patients with signs of aggravation of depression: One
  tearfulness: not a single female patient suffered from tearfulness
[1]
  Item 1 (orientation in locality, time, immediate surroundings and one's own personality): change during the course of the therapy: +0.18 +/− 0.08 scores
  Item 2 (orientation in space): change during the course of the therapy: +0.11 +/− 0.07 scores
  Item 3 (memory for the past): change during the course of the therapy: +0.29 +/− 0.1 scores
  Item 4 (memory for the present): change during the course of the therapy: _0.29 +/− 0.08 scores
  Item 5 (life in the past): change during the course of the therapy: _0.29 +/− 0.1 scores
  Item 6a (speech): change during the course of the therapy: +0.14 +/− 0.08 scores
  Item 6b (difficulty in finding words, and distortion of words): change during the course of the therapy: −0.04 +/− 0.03 scores
  Item 6g (speech): change during the course of the therapy: −0.07 +/− 0.18 scores
  Item 7 (concentration of attention): change during the course of the therapy: −0.04 +/− 0.06 scores
  Item 8b (low spirits): change during the course of the therapy: +0.43 +/− 0.2 scores
  Item 9 (delirium): change during the course of the therapy: +0.25 +/− 0.17 scores
  Item 13 (irritability): change during the course of the therapy: +0.36 +/− 0.16 scores
  Item 14 (anxiety): change during the course of the therapy: +0.07 +/− 0.09 scores
  Item 15 (asthenia): change during the course of the therapy: 0 +/− 0 scores
  Item 16 (headaches): change during the course of the therapy: +0.21 +/− 0.1 scores
  Item 17 (dizziness): change during the course of the therapy: −0.18 +/− 0.22 scores
  Item 18 (tearfulness): change during the course of the therapy: +0.21 +/− 0.15 scores
  Item 19 (spontaneous activity): change during the course of the therapy: +0.04 +/− 0.11 scores
  Item 20 (elementary self-service): change during the course of the therapy: 0 +/− 0.1 scores
[2]
  Item 1 (orientation in locality, time, immediate surroundings and one's own personality): mean value: 1.57 +/− 0.23 scores
  Item 2 (orientation in space): mean value: 0.25 +/− 0.13 scores
  Item 3 (memory for the past): mean value: 1.93 +/− 0.24 scores
  Item 4 (memory for the present): mean value: 1.86 +/− 0.23 scores
  Item 5 (life in the past): mean value: 1.57 +/− 0.27 scores
  Item 6a (speech): mean value: 0.54 +/− 0.21 scores
  Item 6b (difficulty in finding words, and distortion of words): mean value: 0.39 +/− 0.2 scores
  Item 6g (speech): mean value: 0.54 +/− 0.19 scores
  Item 7 (concentration of attention): mean value: 1.75 +/− 0.3 scores
  Item 8b (low spirits): mean value: 0.46 +/− 0.14 scores
  Item 9 (delirium): mean value: 0.5 +/− 0.19 scores
  Item 13 (irritability): mean value: 0.14 +/− 0.09 scores
  Item 14 (anxiety): mean value: 0.18 +/− 0.1 scores
  Item 15 (asthenia): mean value: 0.04 +/− 0.03 scores
  Item 16 (headaches): mean value: 0.64 +/− 0.24 scores
  Item 17 (dizziness): mean value: 0.68 +/− 0.25 scores
  Item 18 (tearfulness): mean value: 0.14 +/− 0.14 scores
  Item 19 (spontaneous activity): mean value: 1.18 +/− 0.27 scores
  Item 20 (elementary self-service): mean value: 0.14 +/− 0.4 scores
Both after 4-week and 8-week treatment
  impairments according to the first 5 scale points (cognitive functions): lack of impairments
Change at 4 weeks vs K1, K2, per patient
  20. Elementary self-service, Changes (4 weeks): +1
[3]
  2. Orientation in space, Changes (4 weeks): −0.5
  5. Life in the past, Changes (4 weeks): +0.5 (2×) and +1
  6c. Naming of objects, Changes (4 weeks): +0.5 and −1
  7. Concentration, Changes (4 weeks): +0.5 and −0.5
  8b. Lower spirits, Changes (4 weeks): +0.5 (3×) and +2 and +1
  9. Delirium, Changes (4 weeks): +0.5 and +1 and −0.5
  13. Irritability, Changes (4 weeks): +1.5 and +1 (2×) and +0.5
  14. Anxiety, Changes (4 weeks): +0.5 and +1 and −1 (2×)
  15. Asthenia, Changes (4 weeks): −0.5 and −1
  16. Headache, Changes (4 weeks): +1 (2×) and +2 (2×) and −1.5
  17. Dizziness, Changes (4 weeks): +1 and −1 and −2
  18. Tearfulness, Changes (4 weeks): +2 and 0
  6d. Performing instructions, Changes (4 weeks): −1 and +1 (2×)
Change at 4 weeks vs K1, K2 prior to treatment, + improvement, − deterioration, — no change, per patient, listed as dimebon
  1. Orientation in locality and time, Changes (4 weeks): +1 and +0.5
Change at 8 weeks vs K1, K2, + improvement, − deterioration, — no change, per patient, listed as dimebon
  1. Orientation in locality and time, Changes (8 weeks): +1 and +0.5 (3×)
